Laboratory results: patent publication US20160367623A1, “AGONISTS OF GUANYLATE CYCLASE USEFUL FOR THE TREATMENT OF GASTROINTESTINAL DISORDERS, INFLAMMATION, CANCER AND OTHER DISORDERS” (priority 2015, published 2016)
Bridge positions count the residues as written; N and C are the ends. Ends that are not written are not given here.

Tested on: patients with chronic idiopathic constipation (CIC)
Assay: Second phase 3 CIC trial: CSBM weekly responders by week
Assay type: in vivo, human
Conditions: MRA
Text: Both trials include a two-week pre-treatment baseline period, a 12-week treatment period, and a two-week post-treatment period. The phase 3 CIC program was designed to support regulatory submission in the U. S.
The primary endpoint for both trials is the proportion of durable overall responders (%), which is the current regulatory endpoint required for U.S. approval in CIC. The FDA has defined a durable overall responder as a patient who fulfills both ≧3 complete spontaneous bowel movements (CSBMs) per week plus an increase of ≧1 CSBM from baseline in the same week, for 9 out of the 12 treatment weeks. In addition, the same patient must be an overall responder for at least 3 of the last 4 treatment weeks in order to be considered a durable overall responder.
Patients were selected using Rome 3 criteria modified for CIC and had (1) fewer than 3 defecations per week, (2) loose stools occurring rarely without laxatives, (3) inadequate criteria for irritable bowel syndrome with constipation (IBS-C), and (4) at least two of the following applied to at least 25% of defecations: (a) straining during evacuation, (b) lumpy or hard stools, (c) sensation of anorectal obstruction or blockage. Rome 3 requires patients to fulfill the criteria for the last 3 months with symptom onset at least 6 months prior to diagnosis.

[1] = Post-Treatment Week 13, 3 mg, All Randomized (includes Duplicate Patients)
[2] = Post-Treatment Week 13, 3 mg, ITT Population
[3] = Post-Treatment Week 13, 3 mg, ITT Population-Excluding Duplicate Patients
[4] = Post-Treatment Week 13, 6 mg, All Randomized (includes Duplicate Patients)
[5] = Post-Treatment Week 13, 6 mg, ITT Population
[6] = Post-Treatment Week 13, 6 mg, ITT Population-Excluding Duplicate Patients
[7] = Post-Treatment Week 13, Active Combined, All Randomized (includes Duplicate Patients)
[8] = Post-Treatment Week 13, Active Combined, ITT Population-Excluding Duplicate Patients
[9] = Post-Treatment Week 13, Active Combined, ITT Population
[10] = Post-Treatment Week 14, 3 mg, All Randomized (includes Duplicate Patients)
[11] = Post-Treatment Week 14, 3 mg, ITT Population
[12] = Post-Treatment Week 14, 3 mg, ITT Population-Excluding Duplicate Patients
[13] = Post-Treatment Week 14, 6 mg, ITT Population
[14] = Post-Treatment Week 14, 6 mg, ITT Population-Excluding Duplicate Patients
[15] = Post-Treatment Week 14, Active Combined, ITT Population-Excluding Duplicate Patients
[16] = Post-Treatment Week 14, Active Combined, ITT Population
[17] = Week 1, 3 mg, ITT Population-Excluding Duplicate Patients
[18] = Week 1, 6 mg, ITT Population-Excluding Duplicate Patients
[19] = Week 1, Active Combined, ITT Population-Excluding Duplicate Patients
[20] = Week 1, Active Combined, ITT Population
[21] = Week 2, 3 mg, ITT Population-Excluding Duplicate Patients

Substance: Asn^1-Asp^2-Glu^3-Cys^4-Glu^5-Leu^6-Cys^7-Val^8-Asn^9-Val^10-Ala^11-Cys^12-Thr^13-Gly^14-Cys^15-Leu^16 (NDECELCVNVACTGCL; disulfide 4-12, 7-15) [Plecanatide, uroguanylin analogue, guanylate cyclase-C agonist; (C4:C12, C7:C15) bicycle peptide]
- Difference in Proportions (adjusted) (Post-Treatment Week 13, 3 mg minus placebo, All Randomized (includes Duplicate Patients)): 0.042
- Odds Ratio (adjusted) (Post-Treatment Week 13, 3 mg vs placebo, All Randomized (includes Duplicate Patients)): 0.796
- CSBM Weekly Responders, n (%) [1]: 125 (26.6) n (%)
- Non-Responders, n (%) [1]: 345 (73.4) n (%)
- CSBM Weekly Responders, n (%) [2]: 121 (27.3) n (%)
- Non-Responders, n (%) [2]: 322 (72.7) n (%)
- CSBM Weekly Responders, n (%) [3]: 119 (27.4) n (%)
- Non-Responders, n (%) [3]: 315 (72.6) n (%)
- Difference in Proportions (adjusted) (Post-Treatment Week 13, 6 mg minus placebo, All Randomized (includes Duplicate Patients)): 0.003
- Odds Ratio (adjusted) (Post-Treatment Week 13, 6 mg vs placebo, All Randomized (includes Duplicate Patients)): 0.981
- CSBM Weekly Responders, n (%) [4]: 107 (22.7) n (%)
- Non-Responders, n (%) [4]: 364 (77.3) n (%)
- CSBM Weekly Responders, n (%) [5]: 106 (23.6) n (%)
- Non-Responders, n (%) [5]: 343 (76.4) n (%)
- CSBM Weekly Responders, n (%) [6]: 105 (23.7) n (%)
- Non-Responders, n (%) [6]: 338 (76.3) n (%)
- CSBM Weekly Responders, n (%) [7]: 232 (24.7) n (%)
- Non-Responders, n (%) [7]: 709 (75.3) n (%)
- Difference in Proportions (adjusted) (Post-Treatment Week 13, 3 mg minus placebo, ITT Population-Excluding Duplicate Patients): 0.045
- Difference in Proportions (adjusted) (Post-Treatment Week 13, 3 mg minus placebo, ITT Population): 0.044
- Odds Ratio (adjusted) (Post-Treatment Week 13, 3 mg vs placebo, ITT Population-Excluding Duplicate Patients): 0.786
- Odds Ratio (adjusted) (Post-Treatment Week 13, 3 mg vs placebo, ITT Population): 0.792
- Difference in Proportions (adjusted) (Post-Treatment Week 13, 6 mg minus placebo, ITT Population-Excluding Duplicate Patients): 0.008
- Difference in Proportions (adjusted) (Post-Treatment Week 13, 6 mg minus placebo, ITT Population): 0.007
- Odds Ratio (adjusted) (Post-Treatment Week 13, 6 mg vs placebo, ITT Population-Excluding Duplicate Patients): 0.954
- Odds Ratio (adjusted) (Post-Treatment Week 13, 6 mg vs placebo, ITT Population): 0.962
- CSBM Weekly Responders, n (%) [8]: 224 (25.5) n (%)
- Non-Responders, n (%) [8]: 653 (74.5) n (%)
- CSBM Weekly Responders, n (%) [9]: 227 (25.4) n (%)
- Non-Responders, n (%) [9]: 665 (74.6) n (%)
- Difference in Proportions (adjusted) (Post-Treatment Week 14, 3 mg minus placebo, All Randomized (includes Duplicate Patients)): 0.019
- Odds Ratio (adjusted) (Post-Treatment Week 14, 3 mg vs placebo, All Randomized (includes Duplicate Patients)): 0.886
- CSBM Weekly Responders, n (%) [10]: 95 (20.2) n (%)
- Non-Responders, n (%) [10]: 375 (79.8) n (%)
- CSBM Weekly Responders, n (%) [11]: 94 (21.2) n (%)
- Non-Responders, n (%) [11]: 349 (78.8) n (%)
- CSBM Weekly Responders, n (%) [12]: 93 (21.4) n (%)
- Non-Responders, n (%) [12]: 341 (78.6) n (%)
- Difference in Proportions (adjusted) (Post-Treatment Week 14, 6 mg minus placebo, All Randomized (includes Duplicate Patients)): −0.003
- Odds Ratio (adjusted) (Post-Treatment Week 14, 6 mg vs placebo, All Randomized (includes Duplicate Patients)): 1.020
- CSBM Weekly Responders, n (%) (Post-Treatment Week 14, 6 mg, All Randomized (includes Duplicate Patients)): 85 (18.0) n (%)
- CSBM Weekly Responders, n (%) [13]: 83 (18.5) n (%)
- Non-Responders, n (%) [13]: 366 (81.5) n (%)
- CSBM Weekly Responders, n (%) [14]: 82 (18.5) n (%)
- Non-Responders, n (%) [14]: 361 (81.5) n (%)
- CSBM Weekly Responders, n (%) (Post-Treatment Week 14, Active Combined, All Randomized (includes Duplicate Patients)): 180 (19.1) n (%)
- Difference in Proportions (adjusted) (Post-Treatment Week 14, 3 mg minus placebo, ITT Population-Excluding Duplicate Patients): 0.024
- Difference in Proportions (adjusted) (Post-Treatment Week 14, 3 mg minus placebo, ITT Population): 0.026
- Odds Ratio (adjusted) (Post-Treatment Week 14, 3 mg vs placebo, ITT Population-Excluding Duplicate Patients): 0.860
- Odds Ratio (adjusted) (Post-Treatment Week 14, 3 mg vs placebo, ITT Population): 0.852
- Difference in Proportions (adjusted) (Post-Treatment Week 14, 6 mg minus placebo, ITT Population-Excluding Duplicate Patients): −0.005
- Difference in Proportions (adjusted) (Post-Treatment Week 14, 6 mg minus placebo, ITT Population): −0.002
- Odds Ratio (adjusted) (Post-Treatment Week 14, 6 mg vs placebo, ITT Population-Excluding Duplicate Patients): 1.032
- Odds Ratio (adjusted) (Post-Treatment Week 14, 6 mg vs placebo, ITT Population): 1.011
- CSBM Weekly Responders, n (%) [15]: 175 (20.0) n (%)
- Non-Responders, n (%) [15]: 702 (80.0) n (%)
- CSBM Weekly Responders, n (%) [16]: 177 (19.8) n (%)
- Non-Responders, n (%) [16]: 715 (80.2) n (%)
- Difference in Proportions (adjusted) (Week 1, 3 mg minus placebo, All Randomized (includes Duplicate Patients)): 0.123
- Odds Ratio (adjusted) (Week 1, 3 mg vs placebo, All Randomized (includes Duplicate Patients)): 0.468
- Non-Responders, n (%) (Week 1, 3 mg, All Randomized (includes Duplicate Patients)): 342 (72.8) n (%)
- CSBM Weekly Responders, n (%) (Week 1, 3 mg, ITT Population): 121 (27.3) n (%)
- Non-Responders, n (%) (Week 1, 3 mg, ITT Population): 322 (72.7) n (%)
- CSBM Weekly Responders, n (%) [17]: 121 (27.9) n (%)
- Non-Responders, n (%) [17]: 313 (72.1) n (%)
- Difference in Proportions (adjusted) (Week 1, 6 mg minus placebo, All Randomized (includes Duplicate Patients)): 0.106
- Odds Ratio (adjusted) (Week 1, 6 mg vs placebo, All Randomized (includes Duplicate Patients)): 0.513
- Non-Responders, n (%) (Week 1, 6 mg, All Randomized (includes Duplicate Patients)): 351 (74.5) n (%)
- CSBM Weekly Responders, n (%) (Week 1, 6 mg, ITT Population): 114 (25.4) n (%)
- Non-Responders, n (%) (Week 1, 6 mg, ITT Population): 335 (74.6) n (%)
- CSBM Weekly Responders, n (%) [18]: 114 (25.7) n (%)
- Non-Responders, n (%) [18]: 329 (74.3) n (%)
- Non-Responders, n (%) (Week 1, Active Combined, All Randomized (includes Duplicate Patients)): 693 (73.6) n (%)
- Difference in Proportions (adjusted) (Week 1, 3 mg minus placebo, ITT Population-Excluding Duplicate Patients): 0.123
- Difference in Proportions (adjusted) (Week 1, 3 mg minus placebo, ITT Population): 0.118
- Odds Ratio (adjusted) (Week 1, 3 mg vs placebo, ITT Population-Excluding Duplicate Patients): 0.477
- Odds Ratio (adjusted) (Week 1, 3 mg vs placebo, ITT Population): 0.488
- Difference in Proportions (adjusted) (Week 1, 6 mg minus placebo, ITT Population-Excluding Duplicate Patients): 0.102
- Difference in Proportions (adjusted) (Week 1, 6 mg minus placebo, ITT Population): 0.099
- Odds Ratio (adjusted) (Week 1, 6 mg vs placebo, ITT Population-Excluding Duplicate Patients): 0.533
- Odds Ratio (adjusted) (Week 1, 6 mg vs placebo, ITT Population): 0.539
- CSBM Weekly Responders, n (%) [19]: 235 (26.8) n (%)
- Non-Responders, n (%) [19]: 642 (73.2) n (%)
- CSBM Weekly Responders, n (%) [20]: 235 (26.3) n (%)
- Non-Responders, n (%) [20]: 657 (73.7) n (%)
- Difference in Proportions (adjusted) (Week 2, 3 mg minus placebo, All Randomized (includes Duplicate Patients)): 0.089
- Odds Ratio (adjusted) (Week 2, 3 mg vs placebo, All Randomized (includes Duplicate Patients)): 0.582
- CSBM Weekly Responders, n (%) (Week 2, 3 mg, All Randomized (includes Duplicate Patients)): 120 (25.5) n (%)
- CSBM Weekly Responders, n (%) (Week 2, 3 mg, ITT Population): 112 (25.3) n (%)
- Non-Responders, n (%) (Week 2, 3 mg, ITT Population): 331 (74.7) n (%)
- CSBM Weekly Responders, n (%) [21]: 110 (25.3) n (%)
- Non-Responders, n (%) [21]: 324 (74.7) n (%)
